Measured values published in the CheMixHub viscosity set.
± gives the uncertainty stated by the source.

Assay: xn = mol fraction of the nth substance listed

C1CCCC1 + C1CCCCC1
303.15 K, 101 kPa
Details | viscosity [mPa·s]
x1 = 0.1022 | 0.7604 ± 0.0049
x1 = 0.2029 | 0.6988 ± 0.0046
x1 = 0.2998 | 0.6457 ± 0.0044
x1 = 0.3944 | 0.599 ± 0.0042
x1 = 0.4949 | 0.5545 ± 0.004
x1 = 0.5917 | 0.5159 ± 0.0038
x1 = 0.6949 | 0.4788 ± 0.0037
x1 = 0.7843 | 0.4494 ± 0.0036
x1 = 0.8966 | 0.4147 ± 0.0034

COC(=O)CCCCC(=O)OC + C1CCOC1
viscosity [mPa·s], 101 kPa
Details | 293.15 K | 298.15 K | 303.15 K | 308.15 K | 313.15 K | 318.15 K | 323.15 K
x1 = 0.1 | 0.6562 ± 0.02 | 0.6229 ± 0.019 | 0.5909 ± 0.018 | 0.5598 ± 0.017 | 0.5294 ± 0.016 | 0.4989 ± 0.015 | 0.4706 ± 0.015
x1 = 0.2 | 0.8354 ± 0.026 | 0.7852 ± 0.024 | 0.7403 ± 0.023 | 0.6982 ± 0.021 | 0.6588 ± 0.02 | 0.6205 ± 0.019 | 0.5877 ± 0.018
x1 = 0.3 | 1.042 ± 0.032 | 0.9731 ± 0.03 | 0.9111 ± 0.028 | 0.8539 ± 0.026 | 0.8024 ± 0.025 | 0.7543 ± 0.023 | 0.7132 ± 0.022
x1 = 0.3994 | 1.277 ± 0.039 | 1.183 ± 0.036 | 1.1 ± 0.034 | 1.026 ± 0.032 | 0.958 ± 0.029 | 0.906 ± 0.028 | 0.8459 ± 0.026
x1 = 0.5001 | 1.545 ± 0.047 | 1.42 ± 0.044 | 1.311 ± 0.04 | 1.217 ± 0.037 | 1.134 ± 0.035 | 1.063 ± 0.033 | 0.9929 ± 0.031
x1 = 0.5909 | 1.811 ± 0.056 | 1.652 ± 0.051 | 1.517 ± 0.047 | 1.4 ± 0.043 | 1.299 ± 0.04 | 1.206 ± 0.037 | 1.132 ± 0.035
x1 = 0.5999 | 1.838 ± 0.056 | 1.676 ± 0.051 | 1.541 ± 0.047 | 1.421 ± 0.044 | 1.315 ± 0.041 | 1.221 ± 0.038 | 1.146 ± 0.035
x1 = 0.7003 | 2.163 ± 0.067 | 1.956 ± 0.06 | 1.78 ± 0.055 | 1.63 ± 0.05 | 1.506 ± 0.046 | 1.382 ± 0.043 | 1.302 ± 0.04
x1 = 0.7999 | 2.514 ± 0.077 | 2.255 ± 0.069 | 2.042 ± 0.063 | 1.858 ± 0.057 | 1.7 ± 0.052 | 1.556 ± 0.048 | 1.458 ± 0.045
x1 = 0.8937 | 2.866 ± 0.088 | 2.555 ± 0.079 | 2.298 ± 0.071 | 2.08 ± 0.064 | 1.892 ± 0.058 | 1.731 ± 0.053 | 1.609 ± 0.05
x1 = 0.8996 | 2.888 ± 0.089 | 2.574 ± 0.079 | 2.314 ± 0.071 | 2.095 ± 0.065 | 1.905 ± 0.059 | 1.742 ± 0.054 | 1.619 ± 0.05

NCCO + C1COCCO1
101 kPa
Details | viscosity [mPa·s]
298.15 K, x2 = 0.0597 | 16.05 ± 0.49
318.15 K, x2 = 0.5716 | 2.255 ± 0.069

OCc1ccccc1 + C1COCCO1
viscosity [mPa·s], 101 kPa
Details | x1 = 0.201 | x1 = 0.2986 | x1 = 0.4001 | x1 = 0.4991 | x1 = 0.7017 | x1 = 0.9009
303.15 K | 1.398 ± 0.068 | 1.609 ± 0.078 | 1.842 ± 0.088 | 2.149 ± 0.1 | 2.975 ± 0.14 | 4.03 ± 0.19
308.15 K | 1.288 ± 0.063 | 1.456 ± 0.071 | 1.679 ± 0.081 | 1.92 ± 0.092 | 2.615 ± 0.12 | 3.54 ± 0.17
313.15 K | 1.178 ± 0.058 | 1.385 ± 0.068 | 1.553 ± 0.075 | 1.797 ± 0.086 | 2.387 ± 0.11 | 3.199 ± 0.15

C1CCCC1 + C1COCO1
viscosity [mPa·s], 101.3 kPa
Details | x1 = 0.0988 | x1 = 0.1997 | x1 = 0.3005 | x1 = 0.3997 | x1 = 0.4992 | x1 = 0.5979 | x1 = 0.7027 | x1 = 0.7987 | x1 = 0.8995
298.15 K | 0.5513 ± 0.0052 | 0.5176 ± 0.005 | 0.4908 ± 0.0048 | 0.4685 ± 0.0047 | 0.4495 ± 0.0046 | 0.434 ± 0.0045 | 0.4216 ± 0.0044 | 0.4149 ± 0.0044 | 0.4124 ± 0.0044
313.15 K | 0.4666 ± 0.0046 | 0.438 ± 0.0044 | 0.415 ± 0.0042 | 0.3968 ± 0.0041 | 0.3804 ± 0.004 | 0.3679 ± 0.004 | 0.3581 ± 0.0039 | 0.352 ± 0.0039 | 0.351 ± 0.0039
